Data published in ChEMBL document CHEMBL3785000, “Antitubercular Lanostane Triterpenes from Cultures of the Basidiomycete Ganoderma sp. BCC 16642” (J Nat Prod, 2016).
In brackets after ≈: the same amount, converted by molar mass.

Key:
Vero = experiment: Cytotoxicity against African green monkey Vero cells by green fluorescent protein microplate assay; assay type: cell-based; details: Chlorocebus sabaeus
[1] = test system: Mycobacterium tuberculosis; experiment: Antitubercular activity against Mycobacterium tuberculosis H37Ra infected in African green monkey Vero cells measured daily for 8 days by green fluorescent protein microplate assay; assay type: functional; details: 192 h

`C/C(=C\CC[C@@H](C)[C@H]1C[C@H](O)[C@@]2(C)C3=CC[C@H]4C(C)(C)C(=O)CC[C@]4(C)C3=CC[C@]12C)C(=O)O` was tested, and the IC50 (Vero) was greater than 107 µM and the MIC [1] was 50 µg/mL (≈ 107 µM).

`CC(=O)O[C@@H](C/C=C(\C)C(=O)O)[C@@H](C)[C@H]1CC[C@@]2(C)C3=CC[C@H]4C(C)(C)[C@H](O)CC[C@]4(C)C3=CC[C@]12C` was tested, and the IC50 (Vero) was greater than 98 µM and the MIC [1] was 50 µg/mL (≈ 97.5 µM).

With `CO[C@@H]1C[C@H]2C(C)(C)[C@@H](OC(C)=O)CC[C@]2(C)C2=C1[C@]1(C)CC[C@H]([C@H](C)[C@H](C/C=C(\C)C(=O)O)OC(C)=O)[C@@]1(C)CC2` the IC50 (Vero) was 28 µM and the MIC [1] was 25 µg/mL (≈ 42.6 µM).

For `CC(=O)O[C@H]1CC[C@]2(C)C3=C([C@H](O)C[C@H]2C1(C)C)[C@]1(C)CC[C@H]([C@H](C)CC/C=C(\C)C(=O)O)[C@@]1(C)CC3`, the IC50 (Vero) was 72 µM and the MIC [1] was 25 µg/mL (≈ 48.6 µM).

`CC(=O)O[C@@H](C/C=C(\C)C(=O)O)[C@@H](C)[C@H]1CC[C@@]2(C)C3=C(CC[C@]12C)[C@@]1(C)CCC(=O)C(C)(C)[C@@H]1CC3` gave an IC50 (Vero) of 93 µM and an MIC [1] greater than 50 µg/mL.

Compound `CO[C@@H]1C[C@H]2C(C)(C)[C@@H](OC(C)=O)CC[C@]2(C)C2=C1[C@]1(C)[C@@H](O)C[C@H]([C@H](C)CC/C=C(\C)C(=O)O)[C@@]1(C)CC2` has an IC50 (Vero) of 32 µM and an MIC [1] of 50 µg/mL (≈ 91.8 µM).

`CC(=O)O[C@@H](C/C=C(\C)C(=O)O)[C@@H](C)[C@H]1C[C@H](OC(C)=O)[C@@]2(C)C3=C(CC[C@]12C)[C@@]1(C)CCC(=O)C(C)(C)[C@@H]1CC3` showed an IC50 (Vero) of 86 µM and an MIC [1] greater than 50 µg/mL.

`CC(=O)O[C@@H](C/C=C(\C)C(=O)O)[C@@H](C)[C@H]1C[C@H](OC(C)=O)[C@@]2(C)C3=CC[C@H]4C(C)(C)[C@@H](OC(C)=O)CC[C@]4(C)C3=CC[C@]12C` gave an IC50 (Vero) of 16 µM and an MIC [1] of 0.781 µg/mL (≈ 1.27 µM).

Compound `CC(=O)O[C@@H](C/C=C(\C)C(=O)O)[C@@H](C)[C@H]1C[C@H](OC(C)=O)[C@@]2(C)C3=C(CC[C@]12C)[C@@]1(C)CC[C@H](OC(C)=O)C(C)(C)[C@@H]1CC3` has an IC50 (Vero) of 15 µM and an MIC [1] of 3.13 µg/mL (≈ 5.09 µM).

Work on `CC(=O)O[C@@H](C/C=C(\C)C(=O)O)[C@@H](C)[C@H]1C[C@H](O)[C@@]2(C)C3=CC[C@H]4C(C)(C)C(=O)CC[C@]4(C)C3=CC[C@]12C` yielded an IC50 (Vero) greater than 95 µM and an MIC [1] greater than 50 µg/mL.

`CC(=O)O[C@@H](C/C=C(\C)C(=O)O)[C@@H](C)[C@H]1CC[C@@]2(C)C3=C(CC[C@]12C)[C@@]1(C)CCC(=O)C(C)(C)[C@@H]1C[C@H]3O` showed an IC50 (Vero) greater than 95 µM and an MIC [1] greater than 50 µg/mL.

In the case of `CC(=O)O[C@@H](C/C=C(\C)C(=O)O)[C@@H](C)[C@H]1CC[C@@]2(C)C3=CC[C@H]4C(C)(C)C(=O)CC[C@]4(C)C3=CC[C@]12C`, the IC50 (Vero) is reported as 35 µM and the MIC [1] is reported as greater than 50 µg/mL.

`CC(=O)O[C@@H](C/C=C(\C)C(=O)O)[C@@H](C)[C@H]1C[C@H](OC(C)=O)[C@@]2(C)C3=C(CC[C@]12C)[C@@]1(C)CC[C@H](OC(C)=O)C(C)(C)[C@@H]1C[C@H]3O` gave an IC50 (Vero) of 28 µM and an MIC [1] of 3.13 µg/mL (≈ 4.96 µM).

`CC(=O)O[C@H]1CC[C@]2(C)C3=C(CC[C@H]2C1(C)C)[C@]1(C)[C@@H](OC(C)=O)C[C@H]([C@H](C)CC/C=C(\C)C(=O)O)[C@@]1(C)CC3` gave an IC50 (Vero) of 22 µM and an MIC [1] of 0.781 µg/mL (≈ 1.4 µM).

`CO[C@@H]1C[C@H]2C(C)(C)C(=O)CC[C@]2(C)C2=C1[C@]1(C)CC[C@H]([C@H](C)[C@H](C/C=C(\C)C(=O)O)OC(C)=O)[C@@]1(C)CC2` was tested, and the IC50 (Vero) was 36 µM and the MIC [1] was 50 µg/mL (≈ 92.1 µM).

Compound `CC(=O)O[C@H]1CC[C@]2(C)C3=C([C@H](O)C[C@H]2C1(C)C)[C@]1(C)[C@@H](OC(C)=O)C[C@H]([C@H](C)CC/C=C(\C)C(=O)O)[C@@]1(C)CC3` has an IC50 (Vero) of 32 µM and an MIC [1] of 1.56 µg/mL (≈ 2.72 µM).

In the case of `CC(=O)O[C@@H](C/C=C(\C)C(=O)O)[C@@H](C)[C@H]1C[C@H](OC(C)=O)[C@@]2(C)C3=C(CC[C@]12C)[C@@]1(C)CCC(=O)C(C)(C)[C@@H]1C[C@H]3O`, the IC50 (Vero) is reported as greater than 85 µM and the MIC [1] is reported as greater than 50 µg/mL.

`CC(=O)O[C@@H](C/C=C(\C)C(=O)O)[C@@H](C)[C@H]1CC[C@@]2(C)C3=CC[C@H]4C(C)(C)[C@@H](OC(C)=O)CC[C@]4(C)C3=CC[C@]12C` showed an IC50 (Vero) of 32 µM and an MIC [1] of 12.5 µg/mL (≈ 22.5 µM).

Compound `CC(=O)O[C@@H](C/C=C(\C)C(=O)O)[C@@H](C)[C@H]1CC[C@@]2(C)C3=C(CC[C@]12C)[C@@]1(C)CCC(=O)C(C)(C)[C@@H]1CC3=O` has an IC50 (Vero) of 91 µM and an MIC [1] of 50 µg/mL (≈ 94.9 µM).

With `CO[C@@H]1C[C@H]2C(C)(C)[C@@H](OC(C)=O)CC[C@]2(C)C2=C1[C@]1(C)[C@@H](OC(C)=O)C[C@H]([C@H](C)[C@H](C/C=C(\C)C(=O)O)OC(C)=O)[C@@]1(C)CC2` the IC50 (Vero) was 26 µM and the MIC [1] was 12.5 µg/mL (≈ 19.4 µM).

`CC(=O)O[C@@H](C/C=C(\C)C(=O)O)[C@@H](C)[C@H]1CC[C@@]2(C)C3=C(CC[C@]12C)[C@@]1(C)CC[C@@H](OC(C)=O)C(C)(C)[C@@H]1CC3=O` showed an IC50 (Vero) of 33 µM and an MIC [1] greater than 50 µg/mL.

Compound `CC(=O)O[C@@H](C/C=C(\C)C(=O)O)[C@@H](C)[C@H]1C[C@H](OC(C)=O)[C@@]2(C)C3=C(CC[C@]12C)[C@@]1(C)CC[C@H](O)C(C)(C)[C@@H]1CC3` has an IC50 (Vero) of 30 µM and an MIC [1] of 50 µg/mL (≈ 87.3 µM).

`CC(=O)O[C@@H]1CC[C@]2(C)C3=CC[C@]4(C)[C@@H]([C@H](C)CC/C=C(\C)C(=O)O)CC[C@@]4(C)C3=CC[C@H]2C1(C)C` showed an IC50 (Vero) of 89 µM and an MIC [1] greater than 50 µg/mL.

Compound `Cc1c2ccncc2c(C)c2c1[nH]c1ccccc12` [ELLIPTECINE] has an IC50 (Vero) of 3.3 µM.

In the case of `CC(=O)O[C@@H](C/C=C(\C)C(=O)O)[C@@H](C)[C@H]1C[C@H](OC(C)=O)[C@@]2(C)C3=CC[C@H]4C(C)(C)[C@H](OC(C)=O)CC[C@]4(C)C3=CC[C@]12C` [GANODERIC ACID T], the IC50 (Vero) is reported as 28 µM and the MIC [1] is reported as 6.25 µg/mL (≈ 10.2 µM).

For `NNC(=O)c1ccncc1` [ISONIAZID], the MIC [1] was 0.094 µg/mL (≈ 0.685 µM).
